Several values for one entry are separate records, joined by “and”; a condition that tells them apart may be missing. Identical values can stand only once.
System: 126254-015-R-J1-PDC complex spheroid growth, % test/control
Experiment: Anticancer human tumor 126254-015-R-J1-PDC patient-derived soft tissue sarcoma cell line growth inhibition [Asc]
Settings: for viability, T/C: stronger effect = lower value
In short: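 Tumor cells were grown as multicellular spheroids with stromal HUVEC and mesenchymal stem cells and treated singly or in combination. Concentrations fell in half-log steps from the clinical Cmax, or from 10 microM where none was known.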

[1] = curve of first compound, second compound 0.03 µM
[2] = curve of first compound, second compound 0.0949 µM
[3] = curve of first compound, second compound 0.3 µM
[4] = curve of first compound, second compound 0.949 µM
[5] = curve of first compound, second compound 3 µM
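Further: spheroids exposed to compound for seven days.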
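Wherever viability, T/C is given: 100% = DMSO vehicle control wells.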

## NC(=O)C(=Cn1cnc(-c2cc(C(F)(F)F)cc(C(F)(F)F)c2)n1)c1cncnc1 + CCN1C(C(=O)NC23CCC(C(=O)O)(CC2)CC3)C(c2cccc(Cl)c2F)C2(C(=O)Nc3cc(Cl)ccc32)C12CCCCC2
[1]
  IC50: 66.2 nM
[2]
  IC50: 49.3 nM
[3]
  IC50: 43.9 nM
[4]
  IC50: 49.5 nM
[5]
  IC50: 67 nM
Second compound 0.03 µM, first compound 0.000949 µM
  viability, T/C: 93.9%
Second compound 0.03 µM, first compound 0.003 µM
  viability, T/C: 87.4%
Second compound 0.03 µM, first compound 0.00949 µM
  viability, T/C: 79.4%
Second compound 0.03 µM, first compound 0.03 µM
  viability, T/C: 77.8%
Second compound 0.03 µM, first compound 0.0949 µM
  viability, T/C: 37.5%
Second compound 0.03 µM, first compound 0.3 µM
  viability, T/C: 19.6%
Second compound 0.0949 µM, first compound 0.000949 µM
  viability, T/C: 102%
Second compound 0.0949 µM, first compound 0.003 µM
  viability, T/C: 90.5%
Second compound 0.0949 µM, first compound 0.00949 µM
  viability, T/C: 78.6%
Second compound 0.0949 µM, first compound 0.03 µM
  viability, T/C: 61.3%
Second compound 0.0949 µM, first compound 0.0949 µM
  viability, T/C: 35.8%
Second compound 0.0949 µM, first compound 0.3 µM
  viability, T/C: 14%
Second compound 0.3 µM, first compound 0.000949 µM
  viability, T/C: 90.1%
Second compound 0.3 µM, first compound 0.003 µM
  viability, T/C: 102%
Second compound 0.3 µM, first compound 0.00949 µM
  viability, T/C: 83%
Second compound 0.3 µM, first compound 0.03 µM
  viability, T/C: 53.1%
Second compound 0.3 µM, first compound 0.0949 µM
  viability, T/C: 39.3%
Second compound 0.3 µM, first compound 0.3 µM
  viability, T/C: 17.5%
Second compound 0.949 µM, first compound 0.000949 µM
  viability, T/C: 96.5%
Second compound 0.949 µM, first compound 0.003 µM
  viability, T/C: 87.4%
Second compound 0.949 µM, first compound 0.00949 µM
  viability, T/C: 96.1%
Second compound 0.949 µM, first compound 0.03 µM
  viability, T/C: 64.2%
Second compound 0.949 µM, first compound 0.0949 µM
  viability, T/C: 31.6%
Second compound 0.949 µM, first compound 0.3 µM
  viability, T/C: 21%
Second compound 3 µM, first compound 0.000949 µM
  viability, T/C: 102%
Second compound 3 µM, first compound 0.003 µM
  viability, T/C: 99.3%
Second compound 3 µM, first compound 0.00949 µM
  viability, T/C: 87.7%
Second compound 3 µM, first compound 0.03 µM
  viability, T/C: 70.2%
Second compound 3 µM, first compound 0.0949 µM
  viability, T/C: 41.1%
Second compound 3 µM, first compound 0.3 µM
  viability, T/C: 19.6%

## COc1c(OCCCN2CCOCC2)ccc2c3n(c(=NC(=O)c4cnc(N)nc4)nc12)CCN3 + CCN1C(C(=O)NC23CCC(C(=O)O)(CC2)CC3)C(c2cccc(Cl)c2F)C2(C(=O)Nc3cc(Cl)ccc32)C12CCCCC2
[1]
  IC50: 44.2 nM
[2]
  IC50: 38.6 nM
[3]
  IC50: 37.4 nM
[4]
  IC50: 49.1 nM
[5]
  IC50: 51 nM
Second compound 0.03 µM, first compound 0.00316 µM
  viability, T/C: 93.9%
Second compound 0.03 µM, first compound 0.01 µM
  viability, T/C: 91.4%
Second compound 0.03 µM, first compound 0.0316 µM
  viability, T/C: 56.9%
Second compound 0.03 µM, first compound 0.1 µM
  viability, T/C: 28.8%
Second compound 0.03 µM, first compound 0.316 µM
  viability, T/C: 17.4%
Second compound 0.03 µM, first compound 1 µM
  viability, T/C: 11.1%
Second compound 0.0949 µM, first compound 0.00316 µM
  viability, T/C: 87.3%
Second compound 0.0949 µM, first compound 0.01 µM
  viability, T/C: 73.5%
Second compound 0.0949 µM, first compound 0.0316 µM
  viability, T/C: 57.5%
Second compound 0.0949 µM, first compound 0.1 µM
  viability, T/C: 25.8%
Second compound 0.0949 µM, first compound 0.316 µM
  viability, T/C: 16.1%
Second compound 0.0949 µM, first compound 1 µM
  viability, T/C: 9.86%
Second compound 0.3 µM, first compound 0.00316 µM
  viability, T/C: 89.3%
Second compound 0.3 µM, first compound 0.01 µM
  viability, T/C: 72.3%
Second compound 0.3 µM, first compound 0.0316 µM
  viability, T/C: 57.2%
Second compound 0.3 µM, first compound 0.1 µM
  viability, T/C: 26.9%
Second compound 0.3 µM, first compound 0.316 µM
  viability, T/C: 16.3%
Second compound 0.3 µM, first compound 1 µM
  viability, T/C: 10.5%
Second compound 0.949 µM, first compound 0.00316 µM
  viability, T/C: 93.6%
Second compound 0.949 µM, first compound 0.01 µM
  viability, T/C: 86.5%
Second compound 0.949 µM, first compound 0.0316 µM
  viability, T/C: 61.8%
Second compound 0.949 µM, first compound 0.1 µM
  viability, T/C: 30.3%
Second compound 0.949 µM, first compound 0.316 µM
  viability, T/C: 15.6%
Second compound 0.949 µM, first compound 1 µM
  viability, T/C: 10.4%
Second compound 3 µM, first compound 0.00316 µM
  viability, T/C: 87.2%
Second compound 3 µM, first compound 0.01 µM
  viability, T/C: 85.3%
Second compound 3 µM, first compound 0.0316 µM
  viability, T/C: 62.6%
Second compound 3 µM, first compound 0.1 µM
  viability, T/C: 31.2%
Second compound 3 µM, first compound 0.316 µM
  viability, T/C: 16.4%
Second compound 3 µM, first compound 1 µM
  viability, T/C: 10.9%

## C=C(F)C(=O)N1CCN(c2nc(OCC3CCCN3C)nc3c2CCN(c2cccc4cccc(Cl)c24)C3)CC1CC#N (configuration not stated)
Compound 0.0316 µM
  viability, T/C: 92% and 107% and 106%
Compound 0.1 µM
  viability, T/C: 96.8% and 102% and 95.5%
Compound 0.316 µM
  viability, T/C: 94% and 110% and 105%
Compound 1 µM
  viability, T/C: 92.7% and 106% and 93.5%
Compound 3.16 µM
  viability, T/C: 37.7% and 43.4% and 69.6%
Compound 10 µM
  viability, T/C: 0.22% and 0.29% and 0.24%
Curve of compound
  IC50: 2450 nM and 2800 nM and 4360 nM

Source: PubChem BioAssay AID1963429 (Molecular Pharmacology Branch, DTP, NCI, 2024)
